Test results taken from patent publication US20230131402A1, “SPIRO-LACTAM NMDA RECEPTOR MODULATORS AND USES THEREOF” (Aptinyx Inc., priority 2016, published 2023).

Legend:
[1] = target: T1, NMDAR2A (Homo sapiens, UniProt Q12879); test: [3H]MK-801 binding, NMDAR2A expressing HEK cell membranes; type: biochemical; conditions: 50 μM glutamate; for EC50: read-out: NMDAR2A B: log EC50 (converted); for Emax: read-out: NMDAR2A A: % maximal [3H]MK-801 binding relative to 1 mM glycine
T1 construct: expressed in transfected cells; host or cells: HEK cells (membrane extract)
Protocol: (§1) Assays were conducted as described by Moskal et al., “GLYX-13: a monoclonal antibody-derived peptide that acts as an N-methyl-D-aspartate receptor modulator,” Neuropharmacology, 49, 1077-87, 2005. These studies were designed to determine if the test compounds act to facilitate NMDAR activation in NMDAR2A, NMDAR2B, NMDAR2C or NMDAR2D expressing HEK cell membranes as measured by increases in [^3H]MK-801 binding.
(§2) In the assay, 300 μg of NMDAR expressing HEK cell membrane extract protein was preincubated for 15 minutes at 25° C. in the presence of saturating concentrations of glutamate (50 μM) and varying concentrations of test compound (1×10^−15M−1×10^−7M), or 1 mM glycine. Following the addition of 0.3 μCi of [^3H]MK-801 (22.5 Ci/mmol), reactions were again incubated for 15 minutes at 25° C. (nonequilibrium conditions). Bound and free [^3H]MK-801 were separated via rapid filtration using a Brandel apparatus.
(§3) In analyzing the data, the DPM (disintegrations per minute) of [^3H]MK-801 remaining on the filter were measured for each concentration of test compound or for 1 mM glycine. The DPM values for each concentration of a ligand (N=2) were averaged. The baseline value was determined from the best fit curve of the DPM values modeled using the GraphPad program and the log(agonist) vs. response(three parameters) algorithm was then subtracted from all points in the dataset. The % maximal [^3H]MK-801 binding was then calculated relative to that of 1 mM glycine: all baseline subtracted DPM values were divided by the average value for 1 mM glycine. The EC50 and % maximal activity were then obtained from the best fit curve of the % maximal [^3H]MK-801 binding data modelled using the GraphPad program and the log(agonist) vs. response(three parameters) algorithm.
(§4) The tables below summarize the results for the wild type NMDAR agonists NMDAR2A, NMDAR2B, NMDAR2C, and NMDAR2D, and whether the compound is not an agonist (−), is an agonist (+), or is a strong agonist (++), where column A is based on the % maximal [^3H]MK-801 binding relative to 1 mM glycine (−=0; <100%=+; and >100%=++); and column B is based on log EC50 values (0=−; ≥1×10^−9M (e.g., −8)=+; and <1×10^−9M (e.g., −10)=++).

[2] = target: T2, NMDAR2B (Homo sapiens, UniProt Q13224); test: [3H]MK-801 binding, NMDAR2B expressing HEK cell membranes; type: biochemical; conditions: 50 μM glutamate; for EC50: read-out: NMDAR2B B: log EC50 (converted); for Emax: read-out: NMDAR2B A: % maximal [3H]MK-801 binding relative to 1 mM glycine
T2 construct: expressed in transfected cells; host or cells: HEK cells (membrane extract)
T2 sequence (Q13224 27-1484, species assumed, other chains not shown): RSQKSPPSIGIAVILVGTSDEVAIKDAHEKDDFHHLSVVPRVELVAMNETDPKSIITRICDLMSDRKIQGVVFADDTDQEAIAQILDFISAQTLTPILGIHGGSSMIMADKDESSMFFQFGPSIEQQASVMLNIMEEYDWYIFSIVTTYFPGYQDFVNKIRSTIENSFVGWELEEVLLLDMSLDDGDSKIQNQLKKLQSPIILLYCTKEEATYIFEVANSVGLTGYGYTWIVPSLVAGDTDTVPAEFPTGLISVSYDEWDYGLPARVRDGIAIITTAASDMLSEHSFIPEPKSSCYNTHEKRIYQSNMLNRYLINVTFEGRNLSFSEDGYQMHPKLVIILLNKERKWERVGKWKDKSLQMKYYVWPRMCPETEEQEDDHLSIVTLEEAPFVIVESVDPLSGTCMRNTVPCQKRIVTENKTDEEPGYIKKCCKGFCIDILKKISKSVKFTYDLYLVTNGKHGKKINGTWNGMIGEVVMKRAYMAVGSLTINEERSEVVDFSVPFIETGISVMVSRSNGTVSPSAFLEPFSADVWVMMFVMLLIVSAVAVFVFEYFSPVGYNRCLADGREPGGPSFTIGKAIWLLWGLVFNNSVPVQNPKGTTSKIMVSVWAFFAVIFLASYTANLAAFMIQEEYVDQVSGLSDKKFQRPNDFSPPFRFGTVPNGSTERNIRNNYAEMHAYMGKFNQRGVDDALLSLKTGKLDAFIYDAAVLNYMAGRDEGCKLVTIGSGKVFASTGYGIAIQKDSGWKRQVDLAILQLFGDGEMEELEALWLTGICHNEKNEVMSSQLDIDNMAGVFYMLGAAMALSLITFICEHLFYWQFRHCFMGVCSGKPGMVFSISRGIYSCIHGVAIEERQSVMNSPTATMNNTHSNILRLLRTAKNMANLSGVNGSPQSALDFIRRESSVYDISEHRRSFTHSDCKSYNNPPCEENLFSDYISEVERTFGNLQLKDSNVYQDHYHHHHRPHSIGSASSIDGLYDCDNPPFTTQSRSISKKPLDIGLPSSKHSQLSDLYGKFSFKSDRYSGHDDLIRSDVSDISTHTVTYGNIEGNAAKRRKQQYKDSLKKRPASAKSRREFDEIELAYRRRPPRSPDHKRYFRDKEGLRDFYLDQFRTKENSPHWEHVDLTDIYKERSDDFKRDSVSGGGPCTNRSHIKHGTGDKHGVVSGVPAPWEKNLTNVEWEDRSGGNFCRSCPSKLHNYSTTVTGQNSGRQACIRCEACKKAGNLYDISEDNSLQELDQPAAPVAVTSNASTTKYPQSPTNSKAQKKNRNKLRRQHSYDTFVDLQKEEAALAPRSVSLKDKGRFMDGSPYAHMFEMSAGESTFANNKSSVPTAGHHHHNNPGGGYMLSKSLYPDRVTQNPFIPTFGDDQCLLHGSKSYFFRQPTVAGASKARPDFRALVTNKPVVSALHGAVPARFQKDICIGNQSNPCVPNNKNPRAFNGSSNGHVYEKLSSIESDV
Protocol: as §1, §2, §3, §4

[3] = target: T3, NMDAR2C (Homo sapiens, UniProt Q14957); test: [3H]MK-801 binding, NMDAR2C expressing HEK cell membranes; type: biochemical; conditions: 50 μM glutamate; for EC50: read-out: NMDAR2C B: log EC50 (converted)
T3 construct: expressed in transfected cells; host or cells: HEK cells (membrane extract)
T3 sequence (Q14957 20-1233, species assumed, other chains not shown): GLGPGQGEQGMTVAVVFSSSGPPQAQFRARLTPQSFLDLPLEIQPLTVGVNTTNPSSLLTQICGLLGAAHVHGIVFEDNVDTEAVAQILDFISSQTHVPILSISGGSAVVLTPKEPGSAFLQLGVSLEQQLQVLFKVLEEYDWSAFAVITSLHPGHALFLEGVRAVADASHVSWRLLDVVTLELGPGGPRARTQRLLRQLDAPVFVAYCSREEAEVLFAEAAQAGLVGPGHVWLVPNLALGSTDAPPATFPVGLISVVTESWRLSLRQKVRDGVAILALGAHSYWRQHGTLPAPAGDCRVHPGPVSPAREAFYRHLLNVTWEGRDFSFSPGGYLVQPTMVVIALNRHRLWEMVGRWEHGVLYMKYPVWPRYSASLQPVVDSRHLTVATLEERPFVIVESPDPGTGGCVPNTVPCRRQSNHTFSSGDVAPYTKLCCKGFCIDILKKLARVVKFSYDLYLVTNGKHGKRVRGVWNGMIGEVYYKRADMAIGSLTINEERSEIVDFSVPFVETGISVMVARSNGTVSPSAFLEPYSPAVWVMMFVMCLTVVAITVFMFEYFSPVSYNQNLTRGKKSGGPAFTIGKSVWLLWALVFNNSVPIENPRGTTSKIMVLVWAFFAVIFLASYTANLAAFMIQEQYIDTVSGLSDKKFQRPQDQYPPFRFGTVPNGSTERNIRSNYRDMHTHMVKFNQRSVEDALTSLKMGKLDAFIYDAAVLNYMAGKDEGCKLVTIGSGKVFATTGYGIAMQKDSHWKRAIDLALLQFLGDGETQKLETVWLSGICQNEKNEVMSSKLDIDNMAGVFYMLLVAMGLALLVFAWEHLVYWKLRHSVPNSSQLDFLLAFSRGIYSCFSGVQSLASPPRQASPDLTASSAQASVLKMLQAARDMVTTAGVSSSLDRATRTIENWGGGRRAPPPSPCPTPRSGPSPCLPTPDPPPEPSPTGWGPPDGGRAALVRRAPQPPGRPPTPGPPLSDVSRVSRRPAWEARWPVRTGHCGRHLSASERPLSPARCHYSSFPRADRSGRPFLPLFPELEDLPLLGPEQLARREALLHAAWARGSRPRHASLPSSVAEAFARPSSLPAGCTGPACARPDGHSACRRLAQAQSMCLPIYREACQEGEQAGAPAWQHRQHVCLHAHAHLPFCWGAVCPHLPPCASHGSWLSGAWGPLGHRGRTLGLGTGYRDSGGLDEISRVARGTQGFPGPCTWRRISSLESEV
Protocol: as §1, §2, §3, §4

[4] = target: T4, NMDAR2D (Homo sapiens, UniProt O15399); test: [3H]MK-801 binding, NMDAR2D expressing HEK cell membranes; type: biochemical; conditions: 50 μM glutamate; for EC50: read-out: NMDAR2D B: log EC50 (converted)
T4 construct: expressed in transfected cells; host or cells: HEK cells (membrane extract)
T4 sequence (O15399 28-1336, species assumed, other chains not shown): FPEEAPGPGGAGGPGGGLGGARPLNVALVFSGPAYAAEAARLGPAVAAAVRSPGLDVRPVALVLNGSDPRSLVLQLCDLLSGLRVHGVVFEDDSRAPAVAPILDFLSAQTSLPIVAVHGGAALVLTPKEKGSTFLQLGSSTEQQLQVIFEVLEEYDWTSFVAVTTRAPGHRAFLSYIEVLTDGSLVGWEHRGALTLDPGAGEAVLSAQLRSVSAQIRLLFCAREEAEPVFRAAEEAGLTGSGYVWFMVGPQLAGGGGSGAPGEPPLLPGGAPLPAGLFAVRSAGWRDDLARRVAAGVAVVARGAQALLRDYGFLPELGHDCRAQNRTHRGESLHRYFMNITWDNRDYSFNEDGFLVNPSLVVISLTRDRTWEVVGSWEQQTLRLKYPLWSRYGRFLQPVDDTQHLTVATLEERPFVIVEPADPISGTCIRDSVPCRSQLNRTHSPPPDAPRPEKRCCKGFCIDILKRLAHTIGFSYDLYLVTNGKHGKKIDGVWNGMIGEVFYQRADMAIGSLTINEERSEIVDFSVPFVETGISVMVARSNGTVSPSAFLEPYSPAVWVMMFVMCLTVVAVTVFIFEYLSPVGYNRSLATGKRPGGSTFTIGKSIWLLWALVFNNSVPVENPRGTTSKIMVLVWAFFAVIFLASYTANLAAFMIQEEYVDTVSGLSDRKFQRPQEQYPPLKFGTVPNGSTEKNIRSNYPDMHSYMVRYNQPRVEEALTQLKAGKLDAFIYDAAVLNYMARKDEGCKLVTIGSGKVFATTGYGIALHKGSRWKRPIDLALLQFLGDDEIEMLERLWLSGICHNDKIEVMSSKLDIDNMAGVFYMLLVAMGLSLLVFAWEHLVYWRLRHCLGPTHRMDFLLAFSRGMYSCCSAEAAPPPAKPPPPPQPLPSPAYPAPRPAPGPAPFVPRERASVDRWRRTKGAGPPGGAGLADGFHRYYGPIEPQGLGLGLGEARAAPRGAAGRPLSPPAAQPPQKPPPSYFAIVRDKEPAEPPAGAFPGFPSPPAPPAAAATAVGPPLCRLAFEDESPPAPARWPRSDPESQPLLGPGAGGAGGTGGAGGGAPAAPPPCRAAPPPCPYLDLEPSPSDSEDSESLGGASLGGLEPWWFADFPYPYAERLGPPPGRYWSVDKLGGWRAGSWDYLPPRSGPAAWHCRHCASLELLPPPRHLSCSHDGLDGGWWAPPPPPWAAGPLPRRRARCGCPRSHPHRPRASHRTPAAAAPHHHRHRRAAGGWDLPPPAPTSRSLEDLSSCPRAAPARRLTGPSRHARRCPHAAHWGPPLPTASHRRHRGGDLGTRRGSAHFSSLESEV
Protocol: as §1, §2, §3, §4

[5] = target: T5, NMDAR2D (Homo sapiens, UniProt O15399+Q05586); test: as above; type: biochemical; conditions: 50 μM glutamate; for Emax: read-out: NMDAR2D A: % maximal [3H]MK-801 binding relative to 1 mM glycine; for EC50: read-out: NMDAR2D B: log EC50 (converted)
T5 construct: expressed in transfected cells; host or cells: HEK cells (membrane extract)
T5 sequence (O15399 28-1336, species assumed, other chains not shown): as above
Protocol: as §1, §2, §3, §4

[6] = IV pharmacokinetics; type: in vivo, Sprague Dawley rats; conditions: Sprague Dawley, rat, in vivo, iv, 2 mg/kg, normal saline (compounds marked * in 1% NMP and 99% normal saline)
Excerpt: The table below summarizes the results of the IV pharmacokinetics.

[7] = tested on: rats' response (reduced floating time); test: Porsolt forced swim test; type: in vivo, Sprague Dawley rats; conditions: 1 h post-dose, 0.1 mg/kg
Protocol: A non-clinical in vivo pharmacology study (Porsolt assay) was performed to measure antidepressant-like effects. A negative control (0.5% sodium carboxymethyl cellulose in 0.9% sterile saline vehicle) and a positive control (fluoxetine) are shown for comparison against test compound. The study allowed for the evaluation of the effects of each compound on the Porsolt forced swim test as assessed by the rats' response (reduced floating time) during a 5-minute swimming test.
Male 2-3 month old Sprague Dawley rats were used (Harlan, Indianapolis, Ind.). Rats were housed in Lucite cages with aspen wood chip bedding, maintained on a 12:12 light:dark cycle (lights on at 5 AM), and given ad libitum access to Purina lab chow (USA) and tap water throughout the study.
The Porsolt forced swim test adapted for use in rats was performed as described by Burgdorf et al., (The long-lasting antidepressant effects of rapastinel (GLYX-13) are associated with a metaplasticity process in the medial prefrontal cortex and hippocampus. Neuroscience 308:202-211, 2015). Animals were placed in a 46 cm tall×20 cm in diameter clear glass tube filled to 30 cm with tap water (23±1° C.) for 15 min on the first day (habituation) and 5 min on the subsequent test day. Positive control fluoxetine was dosed 3 times (24 h, 5 h and 1 h) prior to testing. Animals were tested 1 h post-dosing with the test compounds or vehicle. Animals received a 15 min habituation session 1 day before the 5 min test. A subset of compounds tested at 1 h post-dosing were retested at 1 wk post-dosing in the same sets of animals. Water was changed after every other animal. Animals were videotaped, and floating time as defined as the minimal amount of effort required to keep the animals head above water was scored offline by a blinded experimenter with high inter-rater reliability (Pearson's r>0.9).
Each compound tested at dose level shown. Significance vs. vehicle group for each experiment is marked. […] A compound marked “No” was not statistically significant from vehicle. Data was averaged for test compound and vehicle groups (N approximately 8 per group) and the percent reduction in floating for group treated with test compound relative to group treated with vehicle is shown.

[8] = Oral pharmacokinetics (plasma, brain, CSF); conditions: rat, 10 mg/kg, per os
Protocol: Plasma, brain, and CSF samples were analyzed at various time points over a 24 hour period.

| Compound | NMDAR2A A: % maximal [3H]MK-801 binding relative to 1 mM glycine [1] | EC50 [1] [nM] | NMDAR2B A: % maximal [3H]MK-801 binding relative to 1 mM glycine [2] | EC50 [2] [nM] | NMDAR2C A: % maximal [3H]MK-801 binding relative to 1 mM glycine [3] | NMDAR2D A: % maximal [3H]MK-801 binding relative to 1 mM glycine [4] | EC50 [3] [nM] | Emax [1] [%] | Emax [2] [%] | Emax [5] [%] | EC50 [5] [nM] | further results |
| --- | --- | --- | --- | --- | --- | --- | --- | --- | --- | --- | --- | --- |
| CN1CCNC2(CNC2=O)C1 (stereo not shown) [EH-2, 8-Methyl-2,5,8-Triazaspiro[3.5]Nonan-1-One] | + (<100%=+) | < 1 | + (<100%=+) | < 1 | − (−=0) | − (−=0) | – | – | – | – | – | – |
| CC(C)(C)OC(=O)N1CCN(C(=O)OC(C)(C)C)C2(CNC2=O)C1 (single isomer, unassigned) [EE-2, Di-Tert-Butyl 1-Oxo-2,5,8-Triazaspiro[3.5]Nonane-5,8-Dicarboxylate] | − (−=0) | – | + (<100%=+) | < 1 | + (<100%=+) | − (−=0) | < 1 | – | – | – | – | – |
| CC(C)(C)OC(=O)N1CCN(C(=O)OC(C)(C)C)C2(CNC2=O)C1 (single isomer, unassigned) [EE-1, Di-Tert-Butyl 1-Oxo-2,5,8-Triazaspiro[3.5]Nonane-5,8-Dicarboxylate] | – | – | – | < 1 | − (−=0) | – | – | 0 | < 100 | 0 | – | – |
| CN1CCN(C(=O)OC(C)(C)C)CC12CN(CC(N)=O)C2=O (stereo not shown) [ER-117] | – | – | – | < 1 | − (−=0) | – | – | 0 | < 100 | < 100 | < 1 | AUC(0-t) [6]: 593 ng·h/mL; clearance [6]: 57.2 mL/min/kg; half-life [6]: 31.2 min; C0 ([6]; read-out: C0): 1670 ng/mL; Vd ([6]; read-out: Vss): 1.44 L/kg; % reduction in float time ([7]; relative to vehicle group): 55.0%; Significance vs. vehicle ([7]; Yes = p<=0.05 from vehicle): Yes; bioavailability ([8]; Sprague Dawley, plasma, po, % F): 69%; AUC(0-t) ([8]; Sprague Dawley, plasma, po, AUClast, normal saline (compounds marked * in 1% NMP and 99% normal saline)): 2050 ng·h/mL; Cmax ([8]; Sprague Dawley, plasma, po, Cmax, normal saline (compounds marked * in 1% NMP and 99% normal saline)): 1540 ng/mL; Tmax ([8]; Sprague Dawley, plasma, po, Tmax, normal saline (compounds marked * in 1% NMP and 99% normal saline)): 30 min; CSF Cmax ([8]; CSF): 232 ng/mL; Brain Cmax ([8]; brain): 121 ng/mL |
| CC(C)(C)OC(=O)N1CCNC2(CNC2=O)C1 (single isomer, unassigned) [EB-2, Tort-Butyl 1-Oxo-2,5,8-Triazaspiro[3.5]Nonane-8-Carboxylate] | + (<100%=+) | < 1 | + (<100%=+) | > 1 | + (<100%=+) | + (<100%=+) | < 1 | – | – | – | – | EC50 [4]: < 1 nM |
| CN1CCN(C(=O)OC(C)(C)C)CC12CN(CC(N)=O)C2=O (stereo not shown) [ER-118] | − (−=0) | – | + (<100%=+) | < 1 | − (−=0) | ++ (>100%=++) | – | – | – | – | – | EC50 [4]: < 1 nM |
| CN1CCNC2(CNC2=O)C1 (stereo not shown) [EH-1, 8-Methyl-2,5,8-Triazaspiro[3.5]Nonan-1-One] | – | < 1 | – | < 1 | − (−=0) | + (<100%=+) | – | < 100 | < 100 | – | < 1 | – |
| CC(C)(C)OC(=O)N1CCNC2(CNC2=O)C1 (single isomer, unassigned) [EB-1, Tort-Butyl 1-Oxo-2,5,8-Triazaspiro[3.5]Nonane-8-Carboxylate] | – | < 1 | − (−=0) | – | + (<100%=+) | – | > 1 | < 100 | – | < 100 | < 1 | – |
